Measurements reported in patent US20250120967A1, “TYROSINE KINASES INHIBITORS AND USES THEREOF” (GREAT NOVEL THERAPEUTICS BIOTECH & MEDICALS CORPORATION, priority 2023, published 2025).
Where two headings read alike, the source gives them in different places.

How the values were obtained:
NTRK2 (TRKB) = NTRK2 (TRKB) (Homo sapiens, UniProt Q16620); assay: Tyrosine kinase inhibition assay; type: biochemical; settings: for inhibition at 1 µM: single concentration 1.0 μM, read-out: percent inhibition
Description: (§1) Tyrosine kinase inhibition assays were performed at ThermoFisher Life Technologies (Madison, WI, USA) using standard protocols (SelectScreen Biochemical Profiling Service, Thermo Fisher Scientific). ATP concentrations used were at the apparent Km. Test compounds were screened in 1% dimethylsulffoxide (DMSO) (final concentration) in the well. For 10-point titrations, 3-fold serial dilutions were conducted from the starting concentration of […]. All Peptide/Kinase Mixtures were diluted to a 2× working concentration in the appropriate Kinase Buffer. All ATP Solutions were diluted to a 4× working concentration in Kinase Buffer (50 mM HEPES pH 7.5, 0.01% BRIJ-35, 10 mM MgCl2, 1 mM EGTA). The apparent ATP Km was previously determined using a Z′-LYTE assay. The Development Reagent was diluted in Development Buffer.
(§2) The inhibition activities of compounds were determined in biochemical assays using single concentration (1.0 μM) measurements. The results were provided as percent inhibition values. A compound displaying a percent inhibition value of greater 80% was defined as a hit. 99 different tyrosine kinases were used.

LCK = LCK (Homo sapiens, UniProt P06239); assay: Tyrosine kinase inhibition assay; type: biochemical; settings: for IC50: read-out: IC50 of compound; for inhibition at 1 µM: single concentration 1.0 μM, read-out: percent inhibition
Description: as §1, §2

CT-26 cells = assay: In vitro cytotoxicity assay (MTT, 72 h); type: cell-based, murine; settings: Mus musculus, CT26, growth inhibition
Description: Six different cell lines were used, including human breast cancer cell lines MDA-MB-231 (6×10^3) and MDA-MB-453 (2.4×10^4), human colorectal cell line SW48 (2.4×10^4), human breast epithelial cell line M10 (6×10^3), human cancer cell line A549 (1.4×10^3), and murine colorectal carcinoma tumors CT26 (6×10^3), which were seeded in a 96-well plate. […] After 72 h, MTT assay (Cayman™) was used to determine the cellular viability.

CSF1R (FMS) = CSF1R (FMS) (Homo sapiens, UniProt P07333); assay: Tyrosine kinase inhibition assay; type: biochemical; settings: for IC50: read-out: IC50 of compound; for inhibition at 1 µM: single concentration 1.0 μM, read-out: percent inhibition
Description: as §1
(§3) The inhibition activities of compounds were determined in biochemical assays using single concentration (1.0 μM) measurements. The results were provided as percent inhibition values. […] 99 different tyrosine kinases were used.

FLT3 = biological target: T1, FLT3 (Homo sapiens, UniProt P36888); assay: Tyrosine kinase inhibition assay; type: biochemical; settings: for inhibition at 1 µM: single concentration 1.0 μM, read-out: percent inhibition; for IC50: read-out: IC50 of compound
T1 sequence (P36888 27-993): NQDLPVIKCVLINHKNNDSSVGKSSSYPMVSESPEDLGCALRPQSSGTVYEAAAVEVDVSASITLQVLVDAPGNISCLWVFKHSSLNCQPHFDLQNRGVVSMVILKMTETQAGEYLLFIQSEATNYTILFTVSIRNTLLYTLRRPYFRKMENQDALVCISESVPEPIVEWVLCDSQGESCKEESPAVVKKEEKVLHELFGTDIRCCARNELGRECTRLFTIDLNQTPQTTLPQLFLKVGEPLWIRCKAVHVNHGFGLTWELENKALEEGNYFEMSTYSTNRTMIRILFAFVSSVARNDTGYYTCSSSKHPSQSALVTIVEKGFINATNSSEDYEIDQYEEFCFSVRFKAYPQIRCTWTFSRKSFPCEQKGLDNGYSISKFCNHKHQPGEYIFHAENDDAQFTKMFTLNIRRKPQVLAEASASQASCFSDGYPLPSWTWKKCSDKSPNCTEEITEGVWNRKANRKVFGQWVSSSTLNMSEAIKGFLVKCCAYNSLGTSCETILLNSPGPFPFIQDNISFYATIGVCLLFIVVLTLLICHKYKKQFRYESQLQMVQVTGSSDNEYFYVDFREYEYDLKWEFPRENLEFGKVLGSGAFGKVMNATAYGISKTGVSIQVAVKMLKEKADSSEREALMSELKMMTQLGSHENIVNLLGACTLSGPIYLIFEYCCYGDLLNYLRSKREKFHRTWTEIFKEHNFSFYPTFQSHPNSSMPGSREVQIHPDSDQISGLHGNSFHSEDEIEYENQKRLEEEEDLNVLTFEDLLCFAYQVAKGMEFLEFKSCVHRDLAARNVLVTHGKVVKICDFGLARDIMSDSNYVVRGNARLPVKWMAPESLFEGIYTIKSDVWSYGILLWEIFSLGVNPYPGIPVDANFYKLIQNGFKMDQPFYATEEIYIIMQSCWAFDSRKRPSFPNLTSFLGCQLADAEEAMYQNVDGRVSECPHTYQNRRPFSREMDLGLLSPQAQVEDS
Description: as §1, §3

MST1R (RON) = MST1R (RON) (Homo sapiens, UniProt Q04912); assay: Tyrosine kinase inhibition assay; type: biochemical; settings: for inhibition at 1 µM: single concentration 1.0 μM, read-out: percent inhibition; for IC50: read-out: IC50 of compound
Description: as §1, §3

TEK (Tie2) = TEK (Tie2) (Homo sapiens, UniProt Q02763); assay: Tyrosine kinase inhibition assay; type: biochemical; settings: for inhibition at 1 µM: single concentration 1.0 μM, read-out: percent inhibition; for IC50: read-out: IC50 of compound
Description: as §1, §3

TYRO3 (RSE) = biological target: T2, TYRO3 (RSE) (Homo sapiens, UniProt Q06418); assay: Tyrosine kinase inhibition assay; type: biochemical; settings: for inhibition at 1 µM: single concentration 1.0 μM, read-out: percent inhibition
T2 sequence (Q06418 41-890): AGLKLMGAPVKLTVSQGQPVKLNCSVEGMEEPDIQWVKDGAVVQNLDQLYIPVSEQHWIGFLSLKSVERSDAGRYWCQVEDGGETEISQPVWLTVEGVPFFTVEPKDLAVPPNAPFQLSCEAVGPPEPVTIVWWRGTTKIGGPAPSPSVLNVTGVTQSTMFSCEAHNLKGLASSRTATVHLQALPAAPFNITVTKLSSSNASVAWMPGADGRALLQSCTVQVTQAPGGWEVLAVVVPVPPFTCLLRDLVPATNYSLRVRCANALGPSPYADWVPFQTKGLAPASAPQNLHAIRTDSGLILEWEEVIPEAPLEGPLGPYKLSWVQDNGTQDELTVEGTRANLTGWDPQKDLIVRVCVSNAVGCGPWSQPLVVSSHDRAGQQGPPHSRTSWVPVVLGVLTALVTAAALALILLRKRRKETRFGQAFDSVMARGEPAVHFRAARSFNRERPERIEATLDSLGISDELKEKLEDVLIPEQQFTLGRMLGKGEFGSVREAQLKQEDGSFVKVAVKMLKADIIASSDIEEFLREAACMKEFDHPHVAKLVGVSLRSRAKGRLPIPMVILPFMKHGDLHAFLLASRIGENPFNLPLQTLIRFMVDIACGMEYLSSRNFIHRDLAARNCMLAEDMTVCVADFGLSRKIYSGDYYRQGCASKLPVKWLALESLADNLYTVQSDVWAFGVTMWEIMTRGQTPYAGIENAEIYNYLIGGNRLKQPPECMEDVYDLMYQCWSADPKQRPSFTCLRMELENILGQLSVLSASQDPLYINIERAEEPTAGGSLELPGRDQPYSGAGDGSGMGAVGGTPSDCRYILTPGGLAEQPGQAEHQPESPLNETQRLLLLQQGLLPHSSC
Description: as §1, §3

[1] = NTRK2 (TRKB), read-out: IC50 of compound
[2] = TYRO3 (RSE), read-out: IC50 of compound

NTRK2 (TRKB), sequence (Q16620 32-822): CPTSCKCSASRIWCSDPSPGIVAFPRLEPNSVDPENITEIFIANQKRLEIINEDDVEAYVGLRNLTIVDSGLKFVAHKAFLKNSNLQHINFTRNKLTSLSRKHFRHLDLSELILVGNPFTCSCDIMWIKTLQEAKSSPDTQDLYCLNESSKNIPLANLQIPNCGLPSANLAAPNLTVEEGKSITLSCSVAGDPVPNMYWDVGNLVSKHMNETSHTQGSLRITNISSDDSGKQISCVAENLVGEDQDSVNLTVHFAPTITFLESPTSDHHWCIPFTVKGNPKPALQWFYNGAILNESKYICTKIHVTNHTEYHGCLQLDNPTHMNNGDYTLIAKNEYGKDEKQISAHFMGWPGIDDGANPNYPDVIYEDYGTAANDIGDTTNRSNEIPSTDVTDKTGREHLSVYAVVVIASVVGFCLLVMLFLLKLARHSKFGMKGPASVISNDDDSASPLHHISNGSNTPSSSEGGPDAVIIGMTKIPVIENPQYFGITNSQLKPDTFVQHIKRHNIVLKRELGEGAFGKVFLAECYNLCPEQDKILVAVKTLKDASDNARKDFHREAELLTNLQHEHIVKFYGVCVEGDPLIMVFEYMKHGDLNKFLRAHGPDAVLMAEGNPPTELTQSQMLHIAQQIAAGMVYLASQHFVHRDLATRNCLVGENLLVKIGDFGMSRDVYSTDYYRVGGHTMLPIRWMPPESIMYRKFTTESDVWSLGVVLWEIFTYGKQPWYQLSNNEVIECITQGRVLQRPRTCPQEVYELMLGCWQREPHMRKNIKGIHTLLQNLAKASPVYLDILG
CSF1R (FMS), sequence (P07333 20-972): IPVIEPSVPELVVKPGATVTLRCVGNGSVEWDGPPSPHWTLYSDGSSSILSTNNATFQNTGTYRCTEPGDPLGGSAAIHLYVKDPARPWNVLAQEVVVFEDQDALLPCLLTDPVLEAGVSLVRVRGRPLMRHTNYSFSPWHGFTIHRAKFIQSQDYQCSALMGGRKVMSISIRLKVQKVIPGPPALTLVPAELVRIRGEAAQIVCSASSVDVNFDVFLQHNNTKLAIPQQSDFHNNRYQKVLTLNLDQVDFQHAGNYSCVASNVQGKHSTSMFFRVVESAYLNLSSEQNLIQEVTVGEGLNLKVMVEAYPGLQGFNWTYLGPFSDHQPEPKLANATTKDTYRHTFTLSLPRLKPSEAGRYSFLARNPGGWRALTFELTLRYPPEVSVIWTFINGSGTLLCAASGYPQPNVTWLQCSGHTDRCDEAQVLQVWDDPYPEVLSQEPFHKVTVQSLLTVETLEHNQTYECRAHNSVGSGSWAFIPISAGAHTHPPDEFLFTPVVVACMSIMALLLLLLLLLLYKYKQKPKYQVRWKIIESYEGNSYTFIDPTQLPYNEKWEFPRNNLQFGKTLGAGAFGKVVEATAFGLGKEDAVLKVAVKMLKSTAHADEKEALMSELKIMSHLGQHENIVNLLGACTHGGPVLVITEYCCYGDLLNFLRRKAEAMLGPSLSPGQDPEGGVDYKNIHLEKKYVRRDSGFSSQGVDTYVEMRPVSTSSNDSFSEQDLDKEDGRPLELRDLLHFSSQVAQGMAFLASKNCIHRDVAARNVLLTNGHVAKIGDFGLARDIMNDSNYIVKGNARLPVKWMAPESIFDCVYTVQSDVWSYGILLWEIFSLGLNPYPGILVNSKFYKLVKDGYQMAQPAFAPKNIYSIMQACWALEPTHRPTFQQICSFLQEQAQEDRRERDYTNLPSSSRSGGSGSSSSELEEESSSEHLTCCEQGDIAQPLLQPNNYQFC
LCK, sequence (P06239 whole entry): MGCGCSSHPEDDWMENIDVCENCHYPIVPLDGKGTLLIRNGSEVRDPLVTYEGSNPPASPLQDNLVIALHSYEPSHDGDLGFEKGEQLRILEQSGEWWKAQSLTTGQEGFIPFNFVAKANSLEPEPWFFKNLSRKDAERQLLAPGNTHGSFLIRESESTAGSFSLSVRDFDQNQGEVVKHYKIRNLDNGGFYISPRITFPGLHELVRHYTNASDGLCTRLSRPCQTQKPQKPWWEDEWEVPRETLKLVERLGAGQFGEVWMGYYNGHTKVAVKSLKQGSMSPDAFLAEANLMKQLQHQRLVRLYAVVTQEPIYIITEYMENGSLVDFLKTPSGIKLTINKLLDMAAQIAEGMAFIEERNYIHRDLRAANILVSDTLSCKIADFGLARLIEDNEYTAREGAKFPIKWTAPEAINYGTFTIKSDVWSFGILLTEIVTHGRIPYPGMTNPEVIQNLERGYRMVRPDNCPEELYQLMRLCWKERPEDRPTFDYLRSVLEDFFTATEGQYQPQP
MST1R (RON), sequence (Q04912 25-1400): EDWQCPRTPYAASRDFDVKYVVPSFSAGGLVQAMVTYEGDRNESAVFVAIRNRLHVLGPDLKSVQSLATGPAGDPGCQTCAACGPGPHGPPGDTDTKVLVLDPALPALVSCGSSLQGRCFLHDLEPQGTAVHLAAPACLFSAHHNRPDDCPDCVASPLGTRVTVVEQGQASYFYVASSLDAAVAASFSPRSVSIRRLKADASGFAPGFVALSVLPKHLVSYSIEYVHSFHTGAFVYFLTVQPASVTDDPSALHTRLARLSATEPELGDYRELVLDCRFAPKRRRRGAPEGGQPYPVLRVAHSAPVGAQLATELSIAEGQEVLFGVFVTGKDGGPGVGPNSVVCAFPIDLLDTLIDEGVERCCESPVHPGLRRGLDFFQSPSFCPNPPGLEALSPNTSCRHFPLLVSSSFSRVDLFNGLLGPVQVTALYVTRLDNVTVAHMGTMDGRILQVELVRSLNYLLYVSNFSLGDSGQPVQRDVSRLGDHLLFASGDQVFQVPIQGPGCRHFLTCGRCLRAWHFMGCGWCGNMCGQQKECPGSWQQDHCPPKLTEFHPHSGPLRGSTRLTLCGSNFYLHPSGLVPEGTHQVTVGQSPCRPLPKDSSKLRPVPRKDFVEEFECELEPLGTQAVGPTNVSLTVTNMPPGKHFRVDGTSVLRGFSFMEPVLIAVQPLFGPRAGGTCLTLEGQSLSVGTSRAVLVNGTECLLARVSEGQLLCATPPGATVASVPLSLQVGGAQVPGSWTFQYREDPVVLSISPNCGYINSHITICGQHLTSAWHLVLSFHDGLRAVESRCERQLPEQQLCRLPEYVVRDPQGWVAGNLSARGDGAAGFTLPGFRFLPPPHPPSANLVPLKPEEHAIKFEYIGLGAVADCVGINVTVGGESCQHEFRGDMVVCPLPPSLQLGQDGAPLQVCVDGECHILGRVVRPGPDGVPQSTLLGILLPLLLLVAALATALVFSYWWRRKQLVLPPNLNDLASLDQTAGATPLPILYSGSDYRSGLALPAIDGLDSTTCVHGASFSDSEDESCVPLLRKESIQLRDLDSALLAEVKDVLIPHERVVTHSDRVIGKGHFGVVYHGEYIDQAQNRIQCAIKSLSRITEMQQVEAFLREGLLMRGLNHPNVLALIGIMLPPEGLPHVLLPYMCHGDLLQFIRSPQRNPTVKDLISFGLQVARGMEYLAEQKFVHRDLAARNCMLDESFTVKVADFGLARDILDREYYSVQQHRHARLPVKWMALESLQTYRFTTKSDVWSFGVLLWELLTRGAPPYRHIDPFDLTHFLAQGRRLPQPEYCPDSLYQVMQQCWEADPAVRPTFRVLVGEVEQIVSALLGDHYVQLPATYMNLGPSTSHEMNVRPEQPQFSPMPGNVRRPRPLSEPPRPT
TEK (Tie2), sequence (Q02763 23-1124): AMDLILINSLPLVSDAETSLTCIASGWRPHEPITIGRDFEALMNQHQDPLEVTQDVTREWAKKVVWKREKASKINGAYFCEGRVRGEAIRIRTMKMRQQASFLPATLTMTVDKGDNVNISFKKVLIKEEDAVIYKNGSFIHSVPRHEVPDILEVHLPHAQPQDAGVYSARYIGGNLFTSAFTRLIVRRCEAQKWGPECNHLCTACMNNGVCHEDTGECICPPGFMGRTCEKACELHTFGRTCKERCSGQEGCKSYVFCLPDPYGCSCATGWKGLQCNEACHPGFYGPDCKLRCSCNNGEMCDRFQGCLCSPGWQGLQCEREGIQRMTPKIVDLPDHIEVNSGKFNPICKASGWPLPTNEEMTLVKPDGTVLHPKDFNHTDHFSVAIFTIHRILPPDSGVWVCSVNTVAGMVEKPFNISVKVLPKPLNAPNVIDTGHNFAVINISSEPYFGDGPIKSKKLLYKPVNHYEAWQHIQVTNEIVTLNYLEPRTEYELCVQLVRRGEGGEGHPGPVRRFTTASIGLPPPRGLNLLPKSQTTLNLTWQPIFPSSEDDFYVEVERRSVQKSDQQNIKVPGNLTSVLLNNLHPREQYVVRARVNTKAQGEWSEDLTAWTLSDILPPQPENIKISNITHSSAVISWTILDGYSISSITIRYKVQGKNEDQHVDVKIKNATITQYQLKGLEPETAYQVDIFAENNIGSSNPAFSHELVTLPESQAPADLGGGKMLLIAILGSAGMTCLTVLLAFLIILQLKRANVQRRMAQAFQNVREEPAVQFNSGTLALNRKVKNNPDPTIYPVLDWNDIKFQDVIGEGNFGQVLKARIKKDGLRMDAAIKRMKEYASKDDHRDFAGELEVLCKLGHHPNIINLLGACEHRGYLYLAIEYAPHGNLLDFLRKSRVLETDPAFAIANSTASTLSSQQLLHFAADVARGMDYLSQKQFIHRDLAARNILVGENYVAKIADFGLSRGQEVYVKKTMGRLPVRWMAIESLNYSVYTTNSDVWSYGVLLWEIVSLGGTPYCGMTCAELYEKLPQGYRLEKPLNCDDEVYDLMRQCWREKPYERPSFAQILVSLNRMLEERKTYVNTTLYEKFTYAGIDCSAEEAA

Structure (SMILES)	IC50 (NTRK2 (TRKB))	inhibition at 1 µM (NTRK2 (TRKB); NTRK2 (TRKB))	IC50 (LCK)	inhibition at 1 µM (LCK)	IC50 (CT-26 cells)	IC50 (CSF1R (FMS))	inhibition at 1 µM (CSF1R (FMS))	inhibition at 1 µM (FLT3)	inhibition at 1 µM (MST1R (RON))	inhibition at 1 µM (TEK (Tie2))	IC50 (TYRO3 (RSE))	inhibition at 1 µM (TYRO3 (RSE); TYRO3 (RSE))	IC50 (NTRK2 (TRKB); [1])	IC50 (FLT3)	IC50 (MST1R (RON))	IC50 (TEK (Tie2))	IC50 (TYRO3 (RSE); [2])
COc1cc2nccc(Oc3ccc(NC(=O)C4(C(=O)Nc5ccc(F)cc5)CC4)cc3)c2cc1OC [Cabozantinib, reference compound]	0.0533 µM	95%	0.0381 µM	95%	19.6 ± 4.3 µM	0.0119 µM	88%	90%	95%	89%	0.0091 µM						
COc1cc2nccc(Oc3ccc(NC(=O)C4(NC(=O)c5ccc(F)cc5)CC4)cc3F)c2cc1OC [Cbo-02, N-(1-((4-((6,7-diMethoxyquinolin-4-yl)oxy)-3-fluorophenyl)carbamoyl)cyclopropyl)-4-fluorobenzamide]		23%		85%	8.2 ± 0.6 µM		83%	56%	96%	77%		58%					
COc1cc2nccc(Oc3ccc(NC(=O)C4(NC(=O)c5ccc(F)cc5)CC4)cc3F)c2cc1Oc1ccc(N)cc1F [Cbo-10]		73%		96%	5.01 ± 0.16 µM		96%	70%	100%	85%		87%					
COc1cc2nccc(Oc3ccc(NC(=O)C4(NC(=O)c5ccc(F)cc5)CC4)cc3F)c2cc1Oc1c(F)cc(N)cc1F [Cbo-14]		88%		97%	4.9 ± 0.11 µM		93%	81%	100%	90%		89%					
COc1cc2nccc(Oc3ccc(NC(=O)C4(C(=O)Nc5ccc(F)cc5)CC4)cc3F)c2cc1Oc1ccc(N)cc1F [Cbo-23]		112%	0.0159 µM	99%	5.18 ± 1.73 µM	0.0402 µM	99%	99%	101%	95%		100%	0.0148 µM	0.0248 µM	0.0515 µM	0.0631 µM	0.0125 µM
CNC(=O)c1cc2c(Oc3ccc(NC(=O)C4(C(=O)Nc5ccc(F)cc5)CC4)cc3)ccnc2cc1OC [Zanzalintinib, reference compound]			0.00707 µM		22.1 ± 0.29 µM	0.0163 µM							0.112 µM	0.00543 µM	0.135 µM	0.15 µM	0.00949 µM
